Source: PubChem BioAssay (NCI)
Values joined by “and” are separate entries in the source; they are usually repeats but may differ in a detail not shown here. Equal entries are not always repeated.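 Grown in 96-well plates, cells were treated for 48 hours with each compound at five concentrations. Insufficient inhibition: endpoint recorded as highest concentration tested. GI50: concentration for 50% inhibition of growth. At the TGI there is no net growth.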

What was measured:
Experiment in all cases: growth of human tumour cells (NCI), 48 h
[1] = test system: HS 578T breast
[2] = test system: T-47D breast
[3] = test system: MCF7 breast
[4] = test system: BT-549 breast
[5] = test system: PC-3 prostate
[6] = test system: LXFL 529 NSCLC
[7] = test system: DMS 273 small cell lung
[8] = test system: SNB-78 CNS
[9] = test system: DLD-1 colon

Compound	GI50 [1]	TGI [1]	GI50 [2]	TGI [2]	GI50 [3]	TGI [3]	GI50 [4]	TGI [4]	GI50 [5]	TGI [5]	TGI [6]	TGI [7]	TGI [8]	TGI [9]
CN(C)Cc1c[nH]c2c(NCCN)c3c(c(NCCN)c12)C(=O)c1ccccc1C3=O	3.38 µM	10.9 µM	1.82 µM	14 µM	19 µM	94.1 µM	3.52 µM	9.87 µM	2.34 µM	8.42 µM	–	–	–	–
O=S(=O)(CCOCc1ccc(-c2ccc3ncnc(Nc4ccc(OCc5cccc(F)c5)c(Cl)c4)c3c2)o1)c1ccccc1	> 11 µM	> 25 µM	> 6.73 µM	> 25 µM	> 25 µM	> 25 µM	> 25 µM	> 25 µM	> 25 µM	> 25 µM	–	–	–	–
NC(=O)c1cccc(Nc2nccc(Nc3cccc(F)c3)n2)c1	6.23 µM	> 25 µM	4.38 µM	16.5 µM	11 µM	> 25 µM	10.3 µM	> 25 µM	8.39 µM	> 25 µM	–	–	–	–
CC1(Cc2ccccc2)NC(=S)NC1=O (stereo not given)	–	–	–	–	–	–	–	–	–	–	> 100 µM	> 100 µM	> 100 µM	> 100 µM
CC1(C)N=C(N)N=C(N)N1c1ccc(OCC(=O)Nc2ccccc2)c(Cl)c1	> 100 µM	> 100 µM	> 65.8 µM	> 100 µM	0.886 µM	> 100 µM	22.3 µM	> 100 µM	0.123 µM	> 66.5 µM	–	–	–	–
c1ccc2nc3c(cc4ccccn43)nc2c1	61.7 µM	> 100 µM	88.1 µM	> 100 µM	> 100 µM	> 100 µM	> 100 µM	> 100 µM	63.7 µM	> 100 µM	–	–	–	–
O=S1(=O)NCCCN1CCNc1nccc(-c2c(-c3cccc(O)c3)nc3sccn23)n1	10.8 µM	> 81.4 µM	23.3 µM	> 100 µM	29.5 µM	> 100 µM	24.3 µM	> 100 µM	45 µM	> 100 µM	–	–	–	–
CCC1=C[C@@H]2CN(C1)Cc1c([nH]c3ccccc13)[C@@](C(=O)OC)(c1cc3c(cc1OC)N(C)[C@H]1[C@@](O)(C(=O)OC)[C@H](OC(C)=O)[C@]4(CC)[C@@H]5C[C@@H]5CN5CC[C@]31[C@@H]54)C2	–	–	–	11.5 µM and 23.9 µM	< 0.005 µM	5.44 µM and 12.6 µM	–	3.46 µM and 17.5 µM	< 0.005 µM	6.54 µM and 15 µM	–	–	–	–
OC(c1ccc(Br)cc1)(c1cccs1)C1CC1 (stereo not given)	–	49.5 µM	–	88.5 µM	–	72.6 µM	–	58.2 µM	–	52.8 µM	–	–	–	–
CCCCCCCCCCN=C(c1ccc(N(C)C)cc1)c1ccc(N(C)C)cc1	1.02 µM	39.1 µM	0.6 µM	> 54 µM	0.356 µM	> 100 µM	0.857 µM	52.9 µM	2.71 µM	> 86 µM	–	–	–	–
CCN(CC)CCNC(=O)c1cn2ncnc(Oc3ccc(NC(=O)Nc4ccc(Cl)c(C(F)(F)F)c4)c(F)c3)c2c1C	1.52 µM	4.29 µM	1.83 µM	4 µM	1.4 µM	3.15 µM	1.86 µM	3.48 µM	1.53 µM	3.3 µM	–	–	–	–
COc1ccc(/C=C2/CCc3cc4ccc(OC)cc4[o+]c32)c(O)c1	4.28 µM	34.5 µM	3.04 µM	22.1 µM	4.31 µM	22 µM	12.1 µM	31.7 µM	2.74 µM	16.2 µM	–	–	–	–
Cn1cc(-c2csc(-c3cn(C)c4ccccc34)n2)c2cnccc21	2.16 µM	4.65 µM	–	–	0.324 µM	1.66 µM	1.68 µM	3.09 µM	1.47 µM	2.99 µM	–	–	–	–
CCSc1nc(N)c2cn[nH]c2n1	22.2 µM	70.1 µM	17.6 µM	56.4 µM	23 µM	60.3 µM	52.1 µM	> 100 µM	19.8 µM	63.5 µM	–	–	–	–
OC(CN1CC1)C(O)CN1CC1 (stereo not given)	> 50 µg/mL	> 50 µg/mL	> 50 µg/mL	> 50 µg/mL	–	–	> 50 µg/mL	> 50 µg/mL	> 50 µg/mL	> 50 µg/mL	–	–	–	–
CC(C)c1ccccc1NC(=O)/C(Cl)=C1/Sc2ccccc2NC1=O	–	–	–	–	–	–	–	–	–	–	> 100 µM	–	> 100 µM	> 100 µM
CC(=O)N[C@H](C(=O)N[C@@H](CCCNC(=N)N)C(=O)N[C@@H](CCCCN)C(=O)N[C@@H](CCCNC(=N)N)C(=O)N[C@]1(C)CCCCCC/C=C\CCC[C@@](C)(C(=O)N[C@@H](CCCNC(=N)N)C(=O)N[C@@H](CCC(=O)O)C(=O)N[C@@H](CC(C)C)C(=O)N[C@H](C(=O)N[C@@H](CCC(=O)O)C(N)=O)C(C)C)NC(=O)[C@H](CCC(N)=O)NC(=O)[C@H](CC(C)C)NC(=O)[C@H](CC(C)C)NC(=O)[C@H](CCCNC(=N)N)NC(=O)[C@H](CCCNC(=N)N)NC(=O)[C@H](CC(C)C)NC1=O)C(C)C	1.46 µM	4.14 µM	1.03 µM	2.31 µM	2 µM	32.9 µM	1.44 µM	4.35 µM	8.24 µM	23.7 µM	–	–	–	–
CCC(=C(c1ccc(OCCCN(C)C)cc1)c1ccc(OCCCN(C)C)cc1)c1ccc(Cl)cc1	2.3 µM	5.35 µM	0.86 µM	3.16 µM	0.216 µM	0.524 µM	2.54 µM	4.94 µM	1.09 µM	3.39 µM	–	–	–	–
COc1ccccc1/C=C/C(=O)/C=C/c1ccccc1O	2.25 µM	11.7 µM	0.488 µM	4.52 µM	0.195 µM	1.73 µM	1.39 µM	3.01 µM	0.539 µM	2.75 µM	–	–	–	–
Cn1c([N+](=O)[O-])cnc1/C=C1\Oc2cc(Cl)ccc2C1=O	1.69 µM	> 24.4 µM	21.5 µM	> 100 µM	0.712 µM	13.3 µM	0.996 µM	4.9 µM	1.36 µM	> 24.1 µM	–	–	–	–
Cn1c2ccccc2c2c(=O)c3ccccc3[nH]c21	> 100 µM	> 100 µM	–	–	30.3 µM	> 100 µM	73.3 µM	> 100 µM	27.5 µM	73.2 µM	–	–	–	–
CCN(CC)CCNC(=O)c1c(C)[nH]c(/C=C2\C(=O)Nc3ccc(F)cc32)c1C	3.01 µM and 3.57 µM and 2.4 µM	> 10 µM and 17.7 µM and 15.3 µM	> 10 µM and > 20 µM and 15.9 µM	> 10 µM and > 20 µM and 35.3 µM	1.93 µM and 2.23 µM and 2.05 µM	> 10 µM and 4.88 µM and 11.9 µM	4.84 µM and 3.32 µM and 3.67 µM	> 10 µM and 6.12 µM and 12.6 µM	1.84 µM and 3.82 µM and 2.9 µM	> 10 µM and 20 µM and 14.5 µM	–	–	–	–

Compound	GI50 [1]	TGI [1]	GI50 [2]	TGI [2]	GI50 [3]	TGI [3]	GI50 [4]	TGI [4]	GI50 [5]	TGI [5]	TGI [6]	TGI [7]	TGI [8]	TGI [9]
C=C1CC2(OC1=O)C(=O)N(CCCN1C(=O)C3(CC(=C)C(=O)O3)c3ccccc31)c1ccccc12 (stereo not given)	3.43 µM	51.5 µM	–	–	1.4 µM	4.45 µM	2.69 µM	9.65 µM	2.79 µM	10.3 µM	–	–	–	–
O=C(/C=C/c1ccccc1)CC(c1ccccc1)N1CCOCC1 (stereo not given)	4.25 µM	55 µM	4.26 µM	23.5 µM	4.68 µM	80.3 µM	1.86 µM	3.62 µM	4.54 µM	19.1 µM	–	–	–	–
Cc1nc(Nc2n[nH]c3c2CN(C(=O)N[C@H](CN(C)C)c2ccccc2)C3(C)C)c2sccc2n1	0.144 µM and 0.469 µM	> 5.44 µM and 14.7 µM	0.0942 µM and 0.562 µM	5.47 µM and 8.67 µM	0.00523 µM and < 0.01 µM	> 5.5 µM and 6.46 µM	0.393 µM and 0.189 µM	3.63 µM and 3.12 µM	0.242 µM and 0.041 µM	> 6.33 µM and 9.76 µM	–	–	–	–
C=CCSc1nc2ccccc2c(=O)n1Cc1ccco1	–	> 100 µM	–	> 100 µM	–	> 100 µM	–	> 100 µM	–	> 100 µM	–	–	–	–
CCOC1Oc2ccccc2-c2oc(=O)c(Sc3ccc(C)cc3)cc21 (stereo not given)	34.5 µM	> 100 µM	1.63 µM	56.4 µM	19.8 µM	> 100 µM	29.5 µM	> 100 µM	17.8 µM	> 100 µM	–	–	–	–
O=C1c2cccnc2-c2nc(-c3ccncc3)cc3c2c1nc1ccccc13	10.6 µM	23.1 µM	44.9 µM	> 100 µM	11.4 µM	23.5 µM	24.6 µM	62.1 µM	16.1 µM	61.9 µM	–	–	–	–
C[C@H]1[C@H](C)CC[C@]2(C(=O)NCCNCCN)CC[C@]3(C)C(=CC[C@@H]4[C@@]5(C)CCC(=O)C(C)(C)[C@@H]5CC[C@]43C)[C@H]12	1.7 µM	3.74 µM	–	–	1.7 µM	3.25 µM	6.45 µM	24.1 µM	1.74 µM	3.81 µM	–	–	–	–
Cc1ncc(C(=O)Nc2ccc(CN3CCN(C)CC3)c(C(F)(F)F)c2)cc1C#Cc1cnc(NC2CC2)c2ncccc12	1.19 µM	4.44 µM	5.68 µM	13.5 µM	0.605 µM	1.18 µM	4.28 µM	8.56 µM	0.597 µM	1.17 µM	–	–	–	–
COc1ccccc1-c1cc(=O)c2ccc(C)nc2[nH]1	–	> 100 µM	–	> 100 µM	–	> 100 µM	–	> 100 µM	> 100 µM	> 100 µM	–	–	–	–
CC1(C)OC2COC3(CNO)OC(C)(C)OC3C2O1 (stereo not given)	–	–	–	–	–	–	–	–	–	–	–	> 100 µM	> 100 µM	> 100 µM
O=C1C(SCCO)=C(SCCO)C(=O)c2ccccc21	–	4.99 µM	–	> 27.5 µM	–	2.36 µM	–	2.89 µM	–	6.1 µM	–	–	–	–
C=CCO/N=C/c1cc(NC(=S)c2ccoc2C)ccc1Cl	–	64.4 µM	–	23.7 µM	–	23.3 µM	–	34.7 µM	–	27.6 µM	–	–	–	–
COCCOCCOCc1n(Cc2ccc3ccccc3n2)c2ccccc2[n+]1Cc1ccc2ccccc2c1	0.964 µM	3.66 µM	0.293 µM	2.08 µM	0.317 µM	1.34 µM	0.277 µM	0.977 µM	0.352 µM	2.29 µM	–	–	–	–
CCCCCCCCCCCCCCCCCCNC(=O)[C@H]1CSC(c2cccs2)N1 (stereo not given in full)	1.17 µM	2.98 µM	0.892 µM	1.84 µM	0.764 µM	1.58 µM	0.983 µM	1.89 µM	1.75 µM	> 50 µM	–	–	–	–
O=C(O)CCC(NC(=S)S)C(=O)O.[Na+].[Zn+2] (stereo not given)	> 50 µM	> 50 µM	> 50 µM	> 50 µM	> 50 µM	> 50 µM	> 50 µM	> 50 µM	> 50 µM	> 50 µM	–	–	–	–
C=C(CN1CCc2ccccc2C1)c1ccc(C(=O)Nc2ccccc2N)cc1	3.7 µM	36.5 µM	> 15.8 µM	> 39 µM	2.08 µM	> 31.6 µM	1.69 µM	6.16 µM	2.01 µM	> 50 µM	–	–	–	–
CCCCCCCCCCCC[n+]1ccccc1 (tested in a mixture with another compound)	1.71 µM	5.15 µM	0.375 µM	3.94 µM	1.04 µM	5.5 µM	0.268 µM	1.06 µM	0.208 µM	0.937 µM	–	–	–	–
c1ccc(Cn2cnc3ccc(-c4nc(-c5ccc6c(c5)ncn6C5CCCCC5)cn5ccnc45)cc32)cc1	2.71 µM	> 100 µM	–	–	2.72 µM	> 100 µM	1.2 µM	2.68 µM	1.97 µM	7.55 µM	–	–	–	–
Cc1cc(Nc2nc(SCc3ccc(C(=O)Nc4ccc(F)cc4N)cc3)nn3cccc23)n[nH]1	0.429 µM	> 100 µM	1.12 µM	52.6 µM	0.0518 µM	29.3 µM	0.296 µM	7 µM	0.355 µM	44.2 µM	–	–	–	–
CC1CCCc2c1nn(C(=O)/C=C(\N)c1ccccc1)c2N (stereo not given)	22.4 µM	> 100 µM	3.71 µM	95.1 µM	7.26 µM	> 100 µM	24.3 µM	93.7 µM	6.54 µM	> 100 µM	–	–	–	–
COc1ccc(-c2nnc(N3CCN(C(=O)CN4CCN(c5ccc(OC)cc5)CC4)CC3)nc2-c2ccc(OC)cc2)cc1	2.84 µM	9.2 µM	2.78 µM	9.36 µM	1.76 µM	3.56 µM	3.53 µM	24 µM	8.49 µM	26.9 µM	–	–	–	–
Cc1ccc2c(c1)Sc1ccc(N=NN(C)C)cc1N2C	–	> 100 µM	–	85.9 µM	–	> 100 µM	–	> 100 µM	–	> 100 µM	–	–	–	–
